Where two headings read alike, the source gives them in different places.
Legend:
[1] = target: T1, CYP2A6 (Homo sapiens, UniProt P11509); assay: CYP2A6 inhibition, coumarin 7-hydroxylation in human liver microsomes; type: in vitro ADME; settings: for Potential for Time-Dep. Inhibition: comparison with and without 30-minute pre-incubation; for inhibition at 5 min, 100 µM: human, pH 7.4, probe coumarin (7-hydroxylation)
T1 construct: Pooled human liver microsomes (from sixteen individuals) were used as the source of enzymes; tissue XenoTech, LLC; host or cells: human liver microsomes, pool of sixteen donors
T1 sequence (P11509 1-494): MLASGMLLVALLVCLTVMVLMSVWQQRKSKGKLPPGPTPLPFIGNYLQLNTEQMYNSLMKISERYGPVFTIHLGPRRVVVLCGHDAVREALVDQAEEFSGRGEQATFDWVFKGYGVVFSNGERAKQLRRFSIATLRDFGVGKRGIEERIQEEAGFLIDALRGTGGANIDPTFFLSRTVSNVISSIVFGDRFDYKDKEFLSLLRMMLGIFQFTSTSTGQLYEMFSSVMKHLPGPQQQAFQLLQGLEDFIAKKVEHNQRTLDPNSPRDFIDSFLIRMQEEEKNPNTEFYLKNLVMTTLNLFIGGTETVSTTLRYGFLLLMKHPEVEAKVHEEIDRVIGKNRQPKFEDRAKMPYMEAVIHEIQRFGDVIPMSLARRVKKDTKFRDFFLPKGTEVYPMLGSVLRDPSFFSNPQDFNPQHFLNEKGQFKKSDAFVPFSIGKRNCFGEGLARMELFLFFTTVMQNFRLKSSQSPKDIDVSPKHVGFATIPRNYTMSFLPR
Protocol: (§1) The basis for many of the following incubation conditions is described in the following references: Madan, et al., 2002,^(1) Huang, 2004,^(3) Ogilvie, et al., 2006,^(6) Pearce, et al., 1996,^(7) Tucker, et al., 2001,^(4) and Walsky and Obach, 2004.^(5) In general, incubations were conducted at approximately 37° C. in 400-μL incubation mixtures (target pH 7.4) containing high purity water, potassium phosphate buffer (50 mM), MgCl2 (3 mM), EDTA (1 mM), an NADPH-generating system [always the mixture of the following: NADP (1 mM), glucose-6-phosphate (5 mM), glucose-6-phosphate dehydrogenase (1 Unit/mL)], and marker substrate at the final concentrations indicated. Pooled human liver microsomes (from sixteen individuals) were used as the source of enzymes (Section 1.3.1.2). The concentrations of marker substrates were based on the Km and Vmax data that were determined previously (data not shown).
(§2) Due to the possibility that boceprevir may bind to microsomal protein or lipids, an attempt was made to design these experiments such that, in as many cases as possible, the microsomal protein, incubation time, and phosphate buffer concentration were 0.1 mg/mL, 5 minutes and 50 mM, respectively, for assays performed with human liver microsomes (Table 1). […] Since it is not imperative that the concentration of marker substrates be exactly equal to Km, the marker substrate concentrations were rounded up or down, as applicable, to simplify the experimental design (data not shown). […] Thus, the final incubation concentration of phenacetin was 60 μM (Table 1).
(§3) The ability of boceprevir to inhibit the CYP enzymes listed in Section 1.2.1 was investigated with a pool of sixteen individual human liver microsomal samples at the concentrations indicated in Table 1. Aliquots of the stock and/or working solutions of boceprevir were manually added to buffer mixtures containing the components described in Section 1.3.21. Incubation mixtures were prepared in bulk to obviate the need for directly pipetting very small volumes (i.e., 1 μL or less). Incubations containing no boceprevir (0 μM) contained the vehicle used to dissolve boceprevir (i.e., 1% methanol).
(§4) The Tecan liquid handling system conducted all remaining incubation steps, with the exception of the centrifugation. Aliquots of the buffer mixtures were then automatically added to 96-well plates at the appropriate locations in duplicate. Aliquots of a substrate working solution were added to the 96-well plates, prior to initiating reactions, to give the final concentrations indicated in Table 1. Reactions were initiated with the addition of an aliquot of an NADPH-generating system. Reactions were automatically terminated at approximately 5 minutes, by the addition of the appropriate internal standard (Table 5) and stop reagent; acetonitrile. Precipitated protein was removed by centrifugation (920 g for 10 minutes at 10° C.). Standards and quality control samples were similarly prepared with the addition of authentic metabolite standards.
(§5) To examine its ability to act as a time-dependent inhibitor, boceprevir (at the same concentrations used to evaluate direct inhibition) was pre-incubated at 37±1° C., in duplicate, with human liver microsomes and an NADPH-generating system for approximately 30 minutes. This pre-incubation allowed for the generation of intermediates that could inhibit human CYP enzymes. The pre-incubations were initiated with the addition of an aliquot of an NADPH-generating system. […] Reactions were automatically terminated, at approximately 5 minutes, by the addition of the appropriate internal standard (Table 5) and stop reagent; acetonitrile. Precipitated protein was removed by centrifugation (920 g for 10 minutes at 10° C.). Incubations containing no boceprevir (0 μM) and incubations that contained boceprevir but were not pre-incubated, served as negative controls.

[2] = target: T2, CYP2C19 (Homo sapiens, UniProt P33261); assay: CYP2C19 inhibition, S-mephenytoin 4′-hydroxylation in human liver microsomes; type: in vitro ADME; settings: for Potential for Time-Dep. Inhibition: comparison with and without 30-minute pre-incubation; for inhibition at 5 min, 100 µM: human, pH 7.4, probe S-mephenytoin (4′-hydroxylation)
T2 construct: Pooled human liver microsomes (from sixteen individuals) were used as the source of enzymes; tissue XenoTech, LLC; host or cells: human liver microsomes, pool of sixteen donors
T2 sequence (P33261 whole entry): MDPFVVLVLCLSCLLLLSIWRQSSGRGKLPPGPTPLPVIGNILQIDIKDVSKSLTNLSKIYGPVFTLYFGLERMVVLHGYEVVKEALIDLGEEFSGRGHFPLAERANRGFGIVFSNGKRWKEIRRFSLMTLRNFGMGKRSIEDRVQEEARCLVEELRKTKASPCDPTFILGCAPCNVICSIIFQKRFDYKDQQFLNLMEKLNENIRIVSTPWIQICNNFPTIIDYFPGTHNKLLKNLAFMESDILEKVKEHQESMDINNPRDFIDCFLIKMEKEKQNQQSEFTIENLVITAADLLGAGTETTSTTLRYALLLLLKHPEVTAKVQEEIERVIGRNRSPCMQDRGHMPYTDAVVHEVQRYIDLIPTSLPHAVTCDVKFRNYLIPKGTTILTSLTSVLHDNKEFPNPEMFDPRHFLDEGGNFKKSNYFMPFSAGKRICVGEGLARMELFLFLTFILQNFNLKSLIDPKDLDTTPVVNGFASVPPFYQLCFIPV
Protocol: as §1, §2, §3, §4, §5

[3] = direct inhibition, zero-minute pre-incubation, pooled human liver microsomes
[4] = pooled human liver microsomes, direct inhibition, zero-minute pre-incubation, read-out: Max. Inhib. at 100 μM
[5] = pooled human liver microsomes, time-dependent inhibition, 30-minute pre-incubation, read-out: Maximum Inhibition at 100 μM
[6] = time-dependent inhibition, 30-minute pre-incubation

Compound: CC(C)(C)NC(=O)NC(C(=O)N1CC2C([C@H]1C(=O)NC(CC1CCC1)C(=O)C(N)=O)C2(C)C)C(C)(C)C (stereo partly drawn) [Boceprevir, (1R,2S,5S)—N-[(2Ξ)-4-amino-1-cyclobutyl-3,4-dioxobutan-2-yl]-3-{(2S)-2-[(tert-butylcarbamoyl)amino]-3,3-dimethylbutanoyl}-6,6-dimethyl-3-azabicyclo[3.1.0]hexane-2-carboxamide]
- Potential for Time-Dep. Inhibition [1]: little or no
- Potential for Time-Dep. Inhibition ([1]; listed as boceprevir): no discernable time-dependent inhibition
- IC50 [1, 3]: > 100 µM
- inhibition at 5 min, 100 µM [1, 4]: 20%
- inhibition at 5 min, 100 µM [1, 5]: 7.8%
- IC50 [1, 6]: > 100 µM
- Potential for Time-Dep. Inhibition [2]: little or no
- Potential for Time-Dep. Inhibition ([2]; listed as boceprevir): no discernable time-dependent inhibition
- IC50 [2, 3]: > 100 µM
- inhibition at 5 min, 100 µM [2, 4]: 25%
- inhibition at 5 min, 100 µM [2, 5]: 14%
- IC50 [2, 6]: > 100 µM
